Test results taken from patent US9969973B2, “Methods and compositions for cell attachment and cultivation on planar substrates” (Janssen Biotech, Inc., priority 2008, dated 2018).

Columns and labels:
[1] = tested on: human embryonic stem cell line H1; assay: Attachment of human embryonic stem cell line H1 to planar substrates of Table 1, with or without H-1152; assay type: cell-based
Procedure: Prior to testing, cells of the human embryonic stem cell line H1 cells were expanded on tissue culture plates coated with a 1:30 dilution of growth factor-reduced MATRIGEL®. Cells were seeded onto 100 mm culture dishes in 10 ml MEF conditioned media supplemented with 20 ng/ml bFGF (MEF-CM/bFGF). The cells were cultured at 37° C. in a humidified with a 5% CO2 atmosphere. The media was changed everyday with fresh MEF-CM/bFGF. Once the cells reached approximately 80% confluence, the cells were passaged by treatment with 1 mg/ml LIBERASE for 5 minutes at 37° C. The digestion was stopped by removing enzyme from the dish and rinsing the cells with MEF-CM/bFGF. The cells were collected by manual scraping in 10 ml MEF-CM/bFGF and transferred to a 50-ml conical tube. The cells were centrifuged at 200×g (1000 rpm) on a tabletop centrifuge to form a pellet. […]
Cells of the human embryonic stem cell line H1 were seeded onto the various planar substrates set forth in Table 1, at a density of 100,000 cells/cm^2. […] The effect of the Rho kinase inhibitor H-1152 on the attachment of the cells to the planar substrates was determined 3 μM H-1152 was added to the medium used to seed the cells. […] The cells were then stained with 1% hematoxylin, and the number of cells was determined via light microscopy. […]

[2] = tested on: human embryonic stem cell line H1; assay: Attachment of H1 cells to polycarbonate Membrane No. 7 with H-1152 concentration series; assay type: cell-based; conditions: 24 hours
Procedure: In a separate experiment, the effect of the Rho kinase inhibitor H-1152 on the attachment of cells of the human embryonic stem cell line H1 to Membrane No. 7 was determined. The cells were seeded on a planar substrate comprising polycarbonate membranes (membrane No. 7) at a density of 150,000 cells/cm^2 in MEF-CM containing 20 ng/ml bFGF. The Rho Kinase inhibitor H-1152 was added to the culture medium at concentration of 0, 0.03, 0.1, 0.3, 1, and 3 μM. After 24 hours, the cells on the membrane were fixed with 4% paraformaldehyde, rinsed with PBS, air dried, stained with crystal violet dye. The number of cells was determined via light microscopy. Wells containing vehicle were included as a control.

[3] = tested on: human embryonic stem cell line H1; assay: Detachment of H1 cells from polycarbonate Membrane No. 9 after removal of H-1152; assay type: cell-based; conditions: 3 μM for 24 hr, then 24 hours without
Procedure: Cells of the human embryonic stem cell line H1 were seeded on to a planar substrate comprising polycarbonate (Membrane No. 9) at a density of 100,000 cells/cm^2, in MEF conditioned medium containing 20 ng/ml bFGF and 3 μM of the Rho kinase inhibitor H-1152. The cells were cultured for 24 hr. After this time, the culture medium was replaced with MEF conditioned medium containing 20 ng/ml bFGF, lacking H-1152. After 24 hours, the cells on the membrane were fixed with 4% paraformaldehyde, rinsed with PBS, air dried, stained with crystal violet dye. The number of cells was determined via light microscopy. Wells containing H-1152 were included as a control.

[4] = tested on: human embryonic stem cell line H1; assay: Effect of porosity and Rho kinase inhibition on attachment of H1 cells (Membranes No. 10 and 11); assay type: cell-based
Procedure: Cells of the human embryonic stem cell line H1 at passage 42 were seeded onto the following planar substrates: Membrane No. 10 (pore size 0.4 μm); and Membrane No. 11 (pore size 3 μm). Cells were seeded at a density of 100,000 cells/cm^2, in MEF conditioned medium containing 20 ng/ml bFGF. The effect of Rho kinase inhibition on the attachment of the cells to the planar substrates was also examined. The cell culture medium was supplemented with 0.3 μM H-1152. After 24 hours, the culture medium was replaced with MEF conditioned medium containing 20 ng/ml bFGF, lacking H-1152. After another 24 hours culture, the cells on the membrane were fixed with 4% paraformaldehyde, rinsed with PBS, air dried, stained with crystal violet dye. Wells containing 1 μM H-1152 were included as a control. The number of cells was determined via light microscopy. Wells containing vehicle were included as a control.

[5] = tested on: human embryonic stem cell line H9; assay: Attachment of H9 cells to mixed cellulose ester membrane No. 1 with Y26732; assay type: cell-based; conditions: for Effect of Y26732 on attachment of H9 cells: 24 hours
Procedure: Cells of the human embryonic stem cell line H9 were cultured on MATRIGEL® coated dishes prior to experimental manipulation. Cells were seeded a mixed cellulose ester membrane (membrane No. 1) at a density of 150,000 cells/cm^2 in MEF conditioned medium. The planar substrate lacked an adlayer and a fibroblast feeder cell layer. The effect of the Rho Kinase inhibitor treatment on the attachment to the planar substrate was examined Cells were treated with 0, 10, or 20 μM Y26732. After 24 hours, the cells were fixed with 4% paraformaldehyde, rinsed with PBS, air dried, stained with crystal violet dye. The number of cells was determined via light microscopy. Wells containing vehicle were included as a control.

[6] = tested on: human embryonic stem cell line H9; assay: Attachment of H9 cells to polycarbonate Membrane No. 7 with Y26732; assay type: cell-based; conditions: 24 hours
Procedure: Cells of the human embryonic stem cell line H9 were seeded onto a planar substrate comprising polycarbonate (Membrane No. 7) at a density of 150,000 cells/cm^2 in MEF conditioned medium. The effect of Rho kinase inhibitor treatment on attachment was examined: The Rho Kinase inhibitor Y26732 was added to the culture medium at concentration of 0, 10, or 20 μM. After 24 hours, the cells on the membrane were fixed with 4% paraformaldehyde at room temperature, rinsed with PBS, air dried, stained with crystal violet dye. The number of cells was determined via light microscopy. Wells containing vehicle were included as a control.

[7] = tested on: dissociated human embryonic stem cells; conditions: serum-free suspension culture; cited from earlier work
[8] = tested on: human embryonic stem cells; conditions: cited from earlier work

SMILES | Effect of H-1152 on attachment of H1 cells ([1]; 3 μM H-1152, membranes No. 2, 4 and 5) | Effect of removal of H-1152 from the culture medium on attached H1 cells ([1]; membranes No. 7 and No. 12) | Attachment of H1 cells with H-1152 ([2]; 0.03 μM) | Attachment of H1 cells with H-1152 ([2]; 0.1 μM) | Attachment of H1 cells with H-1152 ([2]; 0.3 μM) | Attachment of H1 cells with H-1152 ([2]; 1 μM) | Attachment of H1 cells with H-1152 ([2]; 3 μM) | Effect of removal of H-1152 from the culture medium [3] | Need for H-1152 to maintain attachment of H1 cells ([4]; 1 μM, Membranes No. 10 and 11) | Effect of removal of H-1152 from the culture medium ([4]; Membrane No. 10 and Membrane No. 11) | Effect of Y26732 on attachment of H9 cells ([5]; 10 μM) | Effect of Y26732 on attachment of H9 cells ([5]; 20 μM) | Effect of removal of Y26732 from the culture medium ([5]; removal for 24 hr) | Effect of Y26732 on attachment of H9 cells ([6]; 10 μM) | Effect of Y26732 on attachment of H9 cells ([6]; 20 μM) | apoptosis of dissociated human ES cells [7] | attachment of human embryonic stem cells on surface modified plates [8]
Cc1cncc2cccc(S(=O)(=O)N3CCCNC[C@@H]3C)c12 [Membrane H-1152] | enhanced | led to detachment of H1 cells | do not attach | do not attach | attachment was observed | attachment was observed | attachment was observed | resulted in the detachment of cells | required to maintain the attachment | resulted in detachment of cells |  |  |  |  |  |  | 
C[C@@H](N)[C@H]1CC[C@H](C(=O)Nc2ccncc2)CC1 [Membrane Y26732] |  |  |  |  |  |  |  |  |  |  | increased the attachment | increased the attachment | did not result in the detachment | resulted in the attachment | resulted in the attachment | protected from apoptosis | enhance the attachment
